In patent US12708630B2, “Combined therapy of 4′-thio-5-aza-2′-deoxycytidine and Venetoclax” (PINOTBIO, INC., priority 2021, dated 2026):
pIC50: −log10 of the molar value.

How the values were obtained:
Assay in all cases: drug activity profiling cytotoxicity
Assay type in all cases: cell-based
TF-1 = settings: Homo sapiens; TF-1 cell line, Erythroleukemia; read-out: Aza-T-dCyd IC50
Procedure: (§1) To obtain a biomarker for Aza-T-dCyd, drug activity profiling analysis was performed to evaluate the cytotoxicity of 200 cell lines.
(§2) The drug responsiveness analysis of Aza-T-dCyd through drug activity profiling and genomic analysis of 200 cell lines confirmed the potent efficacy of Aza-T-dCyd in various solid tumors (Table 2).

CAMA-1 = settings: Homo sapiens; CAMA-1 cell line, Breast; read-out: Aza-T-dCyd IC50
Procedure: as §1, §2

A7 = A7 cell line, Skin (Melanoma); read-out: Aza-T-dCyd IC50
Procedure: as §1, §2

YAPC = settings: Homo sapiens; YAPC cell line, Pancreas; read-out: Aza-T-dCyd IC50
Procedure: as §1, §2

NCI-H292 = settings: Homo sapiens; NCI-H292 cell line, Lung (NSCLC); read-out: Aza-T-dCyd IC50
Procedure: as §1, §2

Jurkat = settings: Homo sapiens; Jurkat cell line, ALL; read-out: Aza-T-dCyd IC50
Procedure: as §1, §2

Hs 852.T = Hs 852.T cell line, Skin (Melanoma); read-out: Aza-T-dCyd IC50
Procedure: as §1, §2

DOHH-2 = settings: Homo sapiens; DOHH-2 cell line, B-cell lymphoma; read-out: Aza-T-dCyd IC50
Procedure: as §1, §2

NCI-H295R = settings: Homo sapiens; NCI-H295R cell line, Endocrine (Adrenal gland); read-out: Aza-T-dCyd IC50
Procedure: as §1, §2

BxPC-3 = settings: Homo sapiens; BxPC-3 cell line, Pancreas; read-out: Aza-T-dCyd IC50
Procedure: as §1, §2

Detroit 562 = settings: Homo sapiens; Detroit 562 cell line, Head and Neck; read-out: Aza-T-dCyd IC50
Procedure: as §1, §2

MEG01 = settings: Homo sapiens, MEG-01; MEG01 cell line, CML; read-out: Aza-T-dCyd IC50
Procedure: as §1, §2

HT1376 = settings: Homo sapiens, HT-1376; HT1376 cell line, Bladder; read-out: Aza-T-dCyd IC50
Procedure: as §1, §2

T98G = settings: Homo sapiens; T98G cell line, CNS (Glioma); read-out: Aza-T-dCyd IC50
Procedure: as §1, §2

BHT-101 = settings: Homo sapiens; BHT-101 cell line, Endocrine (Thyroid); read-out: Aza-T-dCyd IC50
Procedure: as §1, §2

5637 = 5637 cell line, Bladder; read-out: Aza-T-dCyd IC50
Procedure: as §1, §2

Hs 746T = settings: Homo sapiens, Hs746T; Hs 746T cell line, Stomach; read-out: Aza-T-dCyd IC50
Procedure: as §1, §2

U-87 MG = settings: Homo sapiens; U-87 MG cell line, CNS (Glioma); read-out: Aza-T-dCyd IC50
Procedure: as §1, §2

HT-1080 = settings: Homo sapiens; HT-1080 cell line, Sarcoma; read-out: Aza-T-dCyd IC50
Procedure: as §1, §2

MCF7 = settings: Homo sapiens; MCF7 cell line, Breast; read-out: Aza-T-dCyd IC50
Procedure: as §1, §2

SCC-4 = settings: Homo sapiens; SCC-4 cell line, Head and Neck; read-out: Aza-T-dCyd IC50
Procedure: as §1, §2

NAMALWA = NAMALWA cell line, Burkitt's lymphoma; read-out: Aza-T-dCyd IC50
Procedure: as §1, §2

NCIH441 = settings: Homo sapiens, NCI-H441; NCIH441 cell line, Lung (NSCLC); read-out: Aza-T-dCyd IC50
Procedure: as §1, §2

OE21 = OE21 cell line, Head and Neck; read-out: Aza-T-dCyd IC50
Procedure: as §1, §2

SW1463 = settings: Homo sapiens; SW1463 cell line, Colon; read-out: Aza-T-dCyd IC50
Procedure: as §1, §2

CGTH-W-1 = settings: Homo sapiens; CGTH-W-1 cell line, Endocrine (Thyroid); read-out: Aza-T-dCyd IC50
Procedure: as §1, §2

SK-MEL-3 = settings: Homo sapiens, SK-MEL3; SK-MEL-3 cell line, Skin (Melanoma); read-out: Aza-T-dCyd IC50
Procedure: as §1, §2

RPMI 6666 = settings: Homo sapiens; RPMI 6666 cell line, Hodgkin's lymphoma; read-out: Aza-T-dCyd IC50
Procedure: as §1, §2

KHOS-240S = KHOS-240S cell line, Bone (Osteosarcoma); read-out: Aza-T-dCyd IC50
Procedure: as §1, §2

SKO-007 = SKO-007 cell line, B-cell myeloma; read-out: Aza-T-dCyd IC50
Procedure: as §1, §2

HPAF-II = settings: Homo sapiens; HPAF-II cell line, Pancreas; read-out: Aza-T-dCyd IC50
Procedure: as §1, §2

## Nc1ncn([C@H]2CC(O)[C@@H](CO)S2)c(=O)n1 (stereo partly shown) [Aza-T-dCyd, 4′-thio-5-aza-2′-deoxycytidine]
TF-1
  pIC50: 6.13
CAMA-1
  pIC50: < 5.00
A7
  pIC50: 5.92
YAPC
  pIC50: 5.98
NCI-H292
  pIC50: 6.71
Jurkat
  pIC50: 7.16
Hs 852.T
  pIC50: < 5.00
DOHH-2
  pIC50: 6.22
NCI-H295R
  pIC50: < 5.00
BxPC-3
  pIC50: 6.16
Detroit 562
  pIC50: 7.09
MEG01
  pIC50: 5.97
HT1376
  pIC50: 5.48
T98G
  pIC50: 5.86
BHT-101
  pIC50: 6.63
5637
  pIC50: 6.53
Hs 746T
  pIC50: 6.18
U-87 MG
  pIC50: 5.79
HT-1080
  pIC50: 6.92
MCF7
  pIC50: 5.19
SCC-4
  pIC50: 5.54
NAMALWA
  pIC50: 7.96
NCIH441
  pIC50: 5.89
OE21
  pIC50: 6.82
SW1463
  pIC50: 6.52
CGTH-W-1
  pIC50: 6.84
SK-MEL-3
  pIC50: 6.28
RPMI 6666
  pIC50: 5.98
KHOS-240S
  pIC50: 6.60
SKO-007
  pIC50: 5.37
HPAF-II
  pIC50: 6.13
